These results are taken from patent US7781483B2, “Benzopyran compound” (Nissan Chemical Industries, Ltd., priority 2004, dated 2010).

Counter-ions that a name gives are not always drawn.

This experiment has as its system Atrium. Description: Effects on the effective refractory period (S1-S2 extrastimulus technique, anesthetized beagles under vagal nerve stimulation). The format is in vivo. To be noted: 0.3 mg/kg intravenously, determined from 5 min after administration, bilateral vagal nerve stimulation, basic cycle length 300 msec, [after]-[before] drug administration. The procedure: Beagles were anesthetized with pentobarbital sodium and thoracotomy was done along the median line under a respirator and the incision was made on the pericardium to expose the heart. An electrocardiogram (ECG) was recorded using bipolar electrodes attached to the surface of the right atrial free wall, right atrial auricle, and right ventricular free wall. The vagal nerves were stimulated using an electrostimulation device with Nichrome wires inserted into the vagal nerves in the neck bilaterally. The conditions for electrostimulation to the vagal nerves were set such that the RR intervals on ECG were prolonged by about 100 msec compared with those before the stimulation was started.
Atrial and ventricular effective refractory periods were determined by S1-S2 extrastimulus technique at basic cycle length of 300 msec during bilateral vagal nerve stimulation, using programmable electric stimulator. A train of 10 basic stimuli (S1) was followed by a premature extrastimulus (S2) at 2 times diastolic threshold.
For evaluation of drug effects, the atrial and ventricular effective refractory periods were determined before drug administration, then respective compound was administrated intravenously at the dose of 0.3 mg/kg, and the atrial and ventricular effective refractory periods were determined from 5 min after the administration.
The results were shown as the prolongation time on the atrial and ventricular effective refractory periods, i.e. [effective refractory period after drug administration]−[effective refractory period before drug administration] (msec).
In the case of `COc1cc2c(cc1NS(C)(=O)=O)OC(C)(C)[C@H](O)[C@H]2NCCC1CCCCC1` (relative stereo) [Synthesis Example 4, N-{(3R*,4S*)-4-[(2-Cyclohexylethyl)amino]-3-hydroxy-6-methoxy-2,2-dimethyl-3,4-dihydro-2H-1-benzopyran-7-yl}methanesulfonamide], the “Prolongation time on the effective refractory period (msec) Atrium” value (“Prolongation time” below) was determined as 26 ms.

Regarding `COc1cc2c(cc1N(C)S(C)(=O)=O)OC(C)(C)[C@H](O)[C@H]2NCCc1ccccc1` (relative stereo) [Synthesis Example 3, N-{(3R*,4S*)-3-Hydroxy-6-methoxy-2,2-dimethyl-4-[(2-phenylethyl)amino]-3,4-dihydro-2H-1-benzopyran-7-yl}-N-methylmethanesulfonamide], the “Prolongation time” value was determined as 20 ms.

On to `CC1(C)Oc2cc(NS(C)(=O)=O)ccc2[C@H](NCCc2ccccc2)[C@H]1O` (relative stereo) [Synthesis Example 7, N-{(3R*,4S*)-3-Hydroxy-2,2-dimethyl-4-[(2-phenylethyl)amino]-3,4-dihydro-2H-1-benzopyran-7-yl}methanesulfonamide maleate], for which the “Prolongation time” value was determined as 32 ms.

As to `CN(c1ccc2c(c1)OC(C)(C)[C@H](O)[C@H]2NCCc1ccccc1)S(C)(=O)=O` (relative stereo) [Synthesis Example 12, N-{(3R*,4S*)-3-hydroxy-2,2-dimethyl-4-[(2-phenylethyl)amino]-3,4-dihydro-2H-benzopyran-7-yl}-N-methylmethanesulfonamide hydrochloride], the “Prolongation time” value is 28 ms.

Take `COc1cc2c(cc1NS(C)(=O)=O)OC(C)(C)[C@H](O)[C@H]2NCCc1ccccc1` (relative stereo) [Synthesis Example 1, N-{(3R*,4S*)-3-Hydroxy-6-methoxy-2,2-dimethyl-4-[(2-phenylethyl)amino]-3,4-dihydro-2H-1-benzopyran-7-yl}methanesulfonamide]: the “Prolongation time” value amounted to 24 ms.

With `Br.CC1(C)Oc2cc(NS(C)(=O)=O)c(O)cc2[C@H](NCCc2ccccc2)[C@H]1O` (relative stereo) [Synthesis Example 2, N-{(3R*,4S*)-3,6-Dihydroxy-2,2-dimethyl-4-[(2-phenylethyl)amino]-3,4-dihydro-2H-1-benzopyran-7-yl}methanesulfonamide], the “Prolongation time” value was 26 ms.
